Experiments:
Format in all cases: biochemical
Details in all cases: ADP-Glo SIK kinase assay
SIK1 = molecular target: T1, SIK1 (Homo sapiens, UniProt P57059); test: ADP-Glo kinase assay, SIK1
T1 construct: purchased Carna Biosciences 02-131
How it was run: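 ADP-Glo, RT throughout. Enz/substrate + ATP, 120 min; ADP-Glo reagent 40 min (ATP depletion); detection reagent 30 min; luminescence read. Neg ctrl 1% DMSO, pos ctrl 10 μM staurosporine, final concs.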

SIK2 = molecular target: T2, SIK2 (Homo sapiens, UniProt Q9H0K1); test: ADP-Glo kinase assay, SIK2
T2 construct: purchased ThermoFisher Scientific PV4792
How it was run: (§1)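 Kinase reactions (enzyme-substrate mix plus ATP) ran 120 min at room temperature for each of SIK3 and SIK2. Signal came from ADP-Glo: unconsumed ATP removed (40 min), ADP reconverted and detected by luciferase/luciferin (30 min), with luminescence tracking kinase activity. 10 μM staurosporine and 1% DMSO (final) served as controls.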

SIK3 = molecular target: T3, SIK3 (Homo sapiens, UniProt Q9Y2K2); test: ADP-Glo kinase assay, SIK3
T3 construct: purchased SignalChem S12-11G-100
How it was run: as §1

T3 sequence (Q9Y2K2 whole entry): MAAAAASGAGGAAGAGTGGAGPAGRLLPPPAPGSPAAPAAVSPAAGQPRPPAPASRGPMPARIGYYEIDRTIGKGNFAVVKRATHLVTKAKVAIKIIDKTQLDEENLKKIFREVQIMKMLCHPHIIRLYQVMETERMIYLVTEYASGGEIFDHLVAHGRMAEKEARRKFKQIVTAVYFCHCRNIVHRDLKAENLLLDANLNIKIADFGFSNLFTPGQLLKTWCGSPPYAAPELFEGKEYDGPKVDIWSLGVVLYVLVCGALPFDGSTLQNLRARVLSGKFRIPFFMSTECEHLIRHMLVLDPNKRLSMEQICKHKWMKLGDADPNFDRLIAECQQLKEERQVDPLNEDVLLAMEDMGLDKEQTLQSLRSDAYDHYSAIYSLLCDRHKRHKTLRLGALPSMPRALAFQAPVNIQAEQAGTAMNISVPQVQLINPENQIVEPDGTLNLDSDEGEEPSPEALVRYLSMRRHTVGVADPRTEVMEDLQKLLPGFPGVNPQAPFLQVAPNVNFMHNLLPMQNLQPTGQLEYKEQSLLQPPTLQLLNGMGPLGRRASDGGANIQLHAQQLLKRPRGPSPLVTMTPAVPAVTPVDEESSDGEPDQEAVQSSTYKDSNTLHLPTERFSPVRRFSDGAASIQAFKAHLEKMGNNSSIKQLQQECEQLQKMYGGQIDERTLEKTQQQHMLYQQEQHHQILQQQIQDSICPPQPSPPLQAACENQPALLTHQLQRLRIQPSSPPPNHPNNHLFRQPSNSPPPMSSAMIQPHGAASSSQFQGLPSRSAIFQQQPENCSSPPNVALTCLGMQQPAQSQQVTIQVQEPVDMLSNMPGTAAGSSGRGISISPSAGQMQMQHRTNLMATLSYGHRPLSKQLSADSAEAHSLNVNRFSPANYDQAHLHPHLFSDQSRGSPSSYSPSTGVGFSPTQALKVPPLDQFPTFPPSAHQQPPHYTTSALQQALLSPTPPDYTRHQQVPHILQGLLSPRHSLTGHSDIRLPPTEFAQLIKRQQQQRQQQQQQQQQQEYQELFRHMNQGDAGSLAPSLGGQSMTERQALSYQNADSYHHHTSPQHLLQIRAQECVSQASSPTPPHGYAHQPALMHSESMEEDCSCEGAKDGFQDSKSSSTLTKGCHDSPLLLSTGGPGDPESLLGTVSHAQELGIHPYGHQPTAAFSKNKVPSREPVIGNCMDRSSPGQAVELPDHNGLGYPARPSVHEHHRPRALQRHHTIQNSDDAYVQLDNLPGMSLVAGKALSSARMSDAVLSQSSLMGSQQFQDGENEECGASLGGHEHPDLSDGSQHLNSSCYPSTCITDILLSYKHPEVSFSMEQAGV
T1 sequence (P57059 whole entry): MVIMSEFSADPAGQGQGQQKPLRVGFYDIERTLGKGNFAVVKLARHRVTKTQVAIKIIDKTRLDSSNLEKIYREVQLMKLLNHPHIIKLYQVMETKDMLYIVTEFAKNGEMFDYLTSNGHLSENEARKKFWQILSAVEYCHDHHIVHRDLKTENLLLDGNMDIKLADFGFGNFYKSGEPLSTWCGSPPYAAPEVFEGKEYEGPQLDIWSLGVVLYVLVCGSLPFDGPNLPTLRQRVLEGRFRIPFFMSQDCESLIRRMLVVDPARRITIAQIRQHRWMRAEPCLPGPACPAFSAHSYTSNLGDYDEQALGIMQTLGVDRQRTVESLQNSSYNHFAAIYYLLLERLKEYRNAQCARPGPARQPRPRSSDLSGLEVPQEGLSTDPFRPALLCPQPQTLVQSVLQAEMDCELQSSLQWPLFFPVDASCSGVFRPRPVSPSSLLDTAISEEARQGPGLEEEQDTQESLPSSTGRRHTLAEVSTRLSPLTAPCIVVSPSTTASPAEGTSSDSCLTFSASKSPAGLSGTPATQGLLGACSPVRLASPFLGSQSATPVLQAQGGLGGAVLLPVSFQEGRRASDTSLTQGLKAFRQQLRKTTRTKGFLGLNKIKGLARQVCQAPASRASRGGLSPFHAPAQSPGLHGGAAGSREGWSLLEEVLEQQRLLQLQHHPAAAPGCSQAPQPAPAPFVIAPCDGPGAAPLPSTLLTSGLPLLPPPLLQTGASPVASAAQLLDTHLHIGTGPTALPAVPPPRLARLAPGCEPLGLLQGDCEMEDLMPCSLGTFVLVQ
T2 sequence (Q9H0K1 whole entry): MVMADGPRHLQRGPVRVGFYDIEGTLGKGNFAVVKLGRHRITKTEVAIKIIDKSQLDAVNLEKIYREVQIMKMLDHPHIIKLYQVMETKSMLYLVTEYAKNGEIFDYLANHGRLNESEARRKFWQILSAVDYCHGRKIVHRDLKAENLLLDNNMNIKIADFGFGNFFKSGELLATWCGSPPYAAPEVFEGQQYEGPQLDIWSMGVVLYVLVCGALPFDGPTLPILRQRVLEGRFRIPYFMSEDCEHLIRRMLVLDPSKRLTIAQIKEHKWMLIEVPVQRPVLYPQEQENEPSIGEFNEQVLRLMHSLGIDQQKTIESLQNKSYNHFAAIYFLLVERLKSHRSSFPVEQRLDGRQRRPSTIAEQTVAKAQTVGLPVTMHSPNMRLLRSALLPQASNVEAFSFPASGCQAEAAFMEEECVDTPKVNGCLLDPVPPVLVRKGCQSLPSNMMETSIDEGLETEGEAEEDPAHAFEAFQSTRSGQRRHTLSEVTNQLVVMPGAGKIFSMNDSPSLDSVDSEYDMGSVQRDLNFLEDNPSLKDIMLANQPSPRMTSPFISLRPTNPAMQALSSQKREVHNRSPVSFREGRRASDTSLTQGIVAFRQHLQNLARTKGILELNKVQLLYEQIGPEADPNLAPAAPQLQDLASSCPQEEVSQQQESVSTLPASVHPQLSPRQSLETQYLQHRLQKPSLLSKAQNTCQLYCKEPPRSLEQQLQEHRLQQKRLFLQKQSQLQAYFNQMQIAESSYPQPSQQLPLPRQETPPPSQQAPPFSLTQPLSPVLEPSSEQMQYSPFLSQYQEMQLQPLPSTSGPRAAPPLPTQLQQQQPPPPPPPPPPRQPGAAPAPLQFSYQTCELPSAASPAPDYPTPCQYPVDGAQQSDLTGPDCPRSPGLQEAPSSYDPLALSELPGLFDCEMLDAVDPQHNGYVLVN

Compound | IC50 (SIK1) [nM] | IC50 (SIK2) [nM] | IC50 (SIK3) [nM]
COc1cc(-c2cnc3cc(OCc4ccnn4C)ccn23)cnc1C(=O)NCC(F)(F)F [compound 262, 3-methoxy-5-[7-[(2-methylpyrazol-3-yl)methoxy]imidazo[1,2-a]pyridin-3-yl]-N-(2,2,2-trifluoroethyl)pyridine-2-carboxamide] | > 500 | 100 to 500 | 10 to 100
COc1cc(-c2cnc3cc(OC4CCN(C)CC4)ccn23)cc(OC(F)F)c1C(=O)NC1CC1 [compound 7, N-cyclopropyl-2-(difluoromethoxy)-6-methoxy-4-[7-[(1-methyl-4-piperidyl)oxy]imidazo[1,2-a]pyridin-3-yl]benzamide] | > 500 | 10 to 100 | 10 to 100
COc1cc(-c2cnc3cc(OC4CCOCC4)ccn23)cc(OC)c1C(=O)NCC(F)(F)F [Cpd 4, 2,6-dimethoxy-4-(7-tetrahydropyran-4-yloxyimidazo[1,2-a]pyridin-3-yl)-N-(2,2,2-trifluoroethyl) benzamide] | > 500 | 100 to 500 | 10 to 100
CCN1CCc2cc(-c3cnc4cc(OCCN(C)C)ccn34)cc(OC)c2C1=O [compound 53, 6-[7-[2-(dimethylamino)ethoxy]imidazo[1,2-a]pyridin-3-yl]-2-ethyl-8-methoxy-3,4-dihydroisoquinolin-1-one] | > 500 | 10 to 100 | 10 to 100
COc1cc(-c2cnc3cc(OC(C)(C)C#N)ccn23)cc(OC(F)F)c1C(=O)NC1CC1 [Cpd 263, 4-[7-(1-cyano-1-methyl-ethoxy)imidazo[1,2-a]pyridin-3-yl]-N-cyclopropyl-2-(difluoromethoxy)-6-methoxy-benzamide] | > 500 | > 500 | 10 to 100
COc1cc(-c2cnc3cc(OCCN4CCOC(C5CC5)C4)ccn23)cc(OC(F)F)c1C(=O)NC1CC1 (stereo not drawn) [compound 196, N-cyclopropyl-4-[7-[2-(2-cyclopropylmorpholin-4-yl)ethoxy]imidazo[1,2-a]pyridin-3-yl]-2-(difluoromethoxy)-6-methoxy-benzamide] | 10 to 100 | 0.01 to 10 | 0.01 to 10
COc1cc(-c2cnc3cc(OCc4ncco4)ccn23)cc(OC(F)F)c1C(=O)NC1CC1 [compound 32, N-cyclopropyl-2-(difluoromethoxy)-6-methoxy-4-[7-(oxazol-2-ylmethoxy)imidazo[1,2-a]pyridin-3-yl]benzamide] | 10 to 100 | 0.01 to 10 | 0.01 to 10
COc1cc(-c2cnc3cc(OC4CC(C#N)C4)ccn23)cc(OC(F)F)c1C(=O)NC1CC1 (stereo not drawn) [compound 164, 4-[7-(3-cyanocyclobutoxy)imidazo [1,2-a]pyridin-3-yl]-N-cyclopropyl-2-(difluoromethoxy)-6-methoxy-benzamide] | 10 to 100 | 0.01 to 10 | 0.01 to 10
CCOCCOc1cc(-c2cnc3cc(OCCN(C)C)ccn23)cc(OC)c1C(=O)NC1CC1 [Cpd 56, N-cyclopropyl-4-[7-[2-(dimethylamino)ethoxy]imidazo [1,2-a]pyridin-3-yl]-2-(2-ethoxyethoxy)-6-methoxy-benzamide] | > 500 | 100 to 500 | 100 to 500
COc1cc(-c2cnc3cc(OCCN4CC(F)(F)C4)ccn23)cc(OC(F)F)c1C(=O)NC1CC1 [compound 186, N-cyclopropyl-4-[7-[2-(3,3-difluoroazetidin-1-yl)ethoxy]imidazo[1,2-a]pyridin-3-yl]-2-(difluoromethoxy)-6-methoxy-benzamide] | 10 to 100 | 0.01 to 10 | 0.01 to 10
CCOC(=O)CN1CCCCC1COc1ccn2c(-c3cc(OC)c(C(=O)NC4CC4)c(OC(F)F)c3)cnc2c1 (stereo not drawn) [Cpd 397, ethyl 2-[2-[[3-[4-(cyclopropylcarbamoyl)-3-(difluoromethoxy)-5-methoxy-phenyl]imidazo[1,2-a]pyridin-7-yl]oxymethyl]-1-piperidyl]acetate] | 10 to 100 | 10 to 100 | 0.01 to 10
COc1cc(-c2cnc3cc(OCCCN4CCn5cccc5C4)ccn23)cc(OC(F)F)c1C(=O)NC1CC1 [compound 310, N-cyclopropyl-2-(difluoromethoxy)-4-[7-[3-(3,4-dihydro-1H-pyrrolo[1,2-a]pyrazin-2-yl)propoxy]imidazo[1,2-a]pyridin-3-yl]-6-methoxy-benzamide] | 10 to 100 | 0.01 to 10 | 0.01 to 10
COc1cc(-c2cnc3cc(OCC(N)C(C)C)ccn23)cc(OC(F)F)c1C(=O)NC1CC1 (stereo not drawn) [compound 121, 4-[7-(2-amino-3-methyl-butoxy)imidazo[1,2-a]pyridin-3-yl]-N-cyclopropyl-2-(difluoromethoxy)-6-methoxy-benzamide] | 10 to 100 | 0.01 to 10 | 0.01 to 10

More lines, now with the values ahead:

IC50 (SIK1) [nM] | IC50 (SIK2) [nM] | IC50 (SIK3) [nM] | Compound
10 to 100 | 0.01 to 10 | 0.01 to 10 | COCCN(CCOc1ccn2c(-c3cc(OC)c(C(=O)NC4CC4)c(OC(F)F)c3)cnc2c1)CC(F)F [compound 237, N-cyclopropyl-4-[7-[2-[2,2-difluoroethyl(2-methoxyethyl)amino]ethoxy]imidazo[1,2-a]pyridin-3-yl]-2-(difluoromethoxy)-6-methoxy-benzamide]
10 to 100 | 0.01 to 10 | 0.01 to 10 | COc1cc(-c2cnc3cc(OCCN4CCC(F)(F)CC4)ccn23)cc(OC(F)F)c1C(=O)NC1CC1 [Cpd 181, N-cyclopropyl-2-(difluoromethoxy)-4-[7-[2-(4,4-difluoro-1-piperidyl)ethoxy]imidazo [1,2-a]pyridin-3-yl]-6-methoxy-benzamide]
10 to 100 | 0.01 to 10 | 0.01 to 10 | COc1cc(-c2cnc3cc(OCCOCCO)ccn23)cc(OC(F)F)c1C(=O)NC1CC1 [compound 73]
10 to 100 | 10 to 100 | 0.01 to 10 | COc1cc(-c2cnc3cc(OCC4CCCN4C4COC4)ccn23)cc(OC(F)F)c1C(=O)NC1CC1 (stereo not drawn) [compound 289, N-cyclopropyl-2-(difluoromethoxy)-6-methoxy-4-[7-[[1-(oxetan-3-yl)pyrrolidin-2-yl]methoxy]imidazo[1,2-a]pyridin-3-yl]benzamide]
10 to 100 | 0.01 to 10 | 10 to 100 | COc1cc(-c2cnc3cc(OCCN4CCOCC4)ccn23)cc2cc[nH]c(=O)c12 [compound 210, 8-methoxy-6-[7-(2-morpholinoethoxy)imidazo [1,2-a]pyridin-3-yl]-2H-isoquinolin-1-one]
10 to 100 | 0.01 to 10 | 0.01 to 10 | COc1cc(-c2cnc3cc(OCCN(C)CC(F)F)ccn23)cc(OC(F)F)c1C(=O)NC1CC1 [compound 236, N-cyclopropyl-4-[7-[2-[2,2-difluoroethyl(methyl)amino]ethoxy]imidazo[1,2-a]pyridin-3-yl]-2-(difluoromethoxy)-6-methoxy-benzamide]
10 to 100 | 0.01 to 10 | 0.01 to 10 | COc1cc(-c2cnc3cc(OCCCOS(C)(=O)=O)ccn23)cc(OC(F)F)c1C(=O)NC1CC1 [Cpd 333, 3-[3-[4-(cyclopropylcarbamoyl)-3-(difluoromethoxy)-5-methoxy-phenyl]imidazo[1,2-a]pyridin-7-yl]oxypropyl methanesulfonate]
0.01 to 10 | 0.01 to 10 | 0.01 to 10 | COc1cc(-c2cnc3cc(OCCN(C)c4ccccc4)ccn23)cc(OC(F)F)c1C(=O)NC1CC1 [Cpd 184, N-cyclopropyl-2-(difluoromethoxy)-6-methoxy-4-[7-[2-(N-methylanilino)ethoxy]imidazo[1,2-a]pyridin-3-yl]benzamide]

Source: patent US12264156B2, “Compounds and pharmaceutical compositions thereof for the treatment of diseases” (GALAPAGOS NV, priority 2018, dated 2025)
